Reference: ChEMBL document CHEMBL4417631, “Oral peptide inhibitors of interleukin-23 receptor and their use to treat inflammatory bowel diseases” (2017)
Where a SMILES comes first, the peptide text is derived from it. [ ]: non-standard residue; d: D form. Phe(3,4-(OMe)2) = COc1ccc(C[C@H](N)C(=O)O)cc1OC; Phe(4-CONH2) = NC(=O)c1ccc(C[C@H](N)C(=O)O)cc1; 2Nal = N[C@@H](Cc1ccc2ccccc2c1)C(=O)O; AEF = NCCOc1ccc(C[C@H](N)C(=O)O)cc1; Pen = CC(C)(S)[C@H](N)C(=O)O; αMeV = CC(C)[C@](C)(N)C(=O)O; Aib = CC(C)(N)C(=O)O

Biological target: T1, Interleukin-23 receptor (Homo sapiens, UniProt Q5VWK5)
T1 sequence (Q5VWK5 whole entry): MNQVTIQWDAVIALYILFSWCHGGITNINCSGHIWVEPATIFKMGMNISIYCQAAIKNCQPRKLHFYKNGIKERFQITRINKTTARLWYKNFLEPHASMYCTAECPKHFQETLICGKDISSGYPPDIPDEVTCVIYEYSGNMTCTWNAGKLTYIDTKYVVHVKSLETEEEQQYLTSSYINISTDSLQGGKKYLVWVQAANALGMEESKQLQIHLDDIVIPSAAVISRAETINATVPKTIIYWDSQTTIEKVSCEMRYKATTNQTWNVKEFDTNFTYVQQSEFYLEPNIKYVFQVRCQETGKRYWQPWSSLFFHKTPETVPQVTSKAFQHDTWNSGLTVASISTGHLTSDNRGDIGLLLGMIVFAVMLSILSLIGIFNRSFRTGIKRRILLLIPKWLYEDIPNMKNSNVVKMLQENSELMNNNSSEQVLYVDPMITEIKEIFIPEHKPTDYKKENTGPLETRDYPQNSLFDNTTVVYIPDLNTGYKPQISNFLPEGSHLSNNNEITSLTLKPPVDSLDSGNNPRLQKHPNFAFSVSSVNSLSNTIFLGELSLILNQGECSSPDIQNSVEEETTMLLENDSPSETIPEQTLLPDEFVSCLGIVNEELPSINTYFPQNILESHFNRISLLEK
Experiment: Inhibition of interleukin-23 receptor in human DB cells assessed as reduction in IL-23-stimulated STAT3 phosphorylation incubated for 30 mins by HTRF assay
Assay type: cell-based

Structure (SMILES)	IC50 [nM]
CC(=O)NCCCC[C@H](NC(=O)C(C)(C)NC(=O)[C@H](Cc1ccc2ccccc2c1)NC(=O)[C@H](Cc1ccc(OCCN)cc1)NC(=O)[C@@H](NC(=O)[C@H](CCC(N)=O)NC(=O)[C@H](Cc1c[nH]c2ccccc12)NC(=O)[C@@H](NC(=O)[C@H](CCC(N)=O)NC(=O)[C@@H](NC(C)=O)C(C)(C)S)[C@@H](C)O)C(C)(C)S)C(=O)N[C@@H](CC(N)=O)C(=O)N[C@@H](C)C(N)=O	< 10
CC(=O)NCCOc1ccc(C[C@H](NC(=O)[C@@H](NC(=O)[C@H](CCC(N)=O)NC(=O)[C@H](Cc2c[nH]c3ccccc23)NC(=O)[C@@H](NC(=O)[C@H](CCC(N)=O)NC(=O)[C@@H](NC(C)=O)C(C)(C)S)[C@@H](C)O)C(C)(C)S)C(=O)N[C@@H](Cc2ccc3ccccc3c2)C(=O)N[C@](C)(C(=O)N[C@@H](CCCCN)C(=O)N[C@@H](CC(N)=O)C(=O)N[C@@H](CC(N)=O)C(N)=O)C(C)C)cc1	< 10
COc1ccc(C[C@H](NC(=O)[C@@H](NC(=O)[C@H](CCC(N)=O)NC(=O)[C@H](Cc2c[nH]c3ccccc23)NC(=O)[C@@H](NC(=O)[C@H](CCC(N)=O)NC(=O)[C@@H](NC(C)=O)C(C)(C)S)[C@@H](C)O)C(C)(C)S)C(=O)N[C@@H](Cc2ccc3ccccc3c2)C(=O)NC(C)(C)C(=O)N[C@@H](CCCCNC(C)=O)C(=O)N[C@@H](CC(N)=O)C(=O)NCCC(N)=O)cc1	< 10
CC(=O)NCCCC[C@H](NC(=O)[C@@](C)(NC(=O)[C@H](Cc1ccc2ccccc2c1)NC(=O)[C@H](Cc1ccc(C(N)=O)cc1)NC(=O)[C@@H](NC(=O)[C@H](CCC(N)=O)NC(=O)[C@H](Cc1c[nH]c2ccccc12)NC(=O)[C@@H](NC(=O)[C@H](CCC(N)=O)NC(=O)[C@@H](NC(=O)[C@@H](CCCCN)NC(C)=O)C(C)(C)S)[C@@H](C)O)C(C)(C)S)C(C)C)C(=O)N[C@@H](CC(N)=O)C(=O)N[C@@H](CC(N)=O)C(N)=O	1000 to 10000
CC(=O)NCCCC[C@H](NC(=O)C(C)(C)NC(=O)[C@H](Cc1ccc2ccccc2c1)NC(=O)[C@H](Cc1ccc(OCCN)cc1)NC(=O)[C@@H](NC(=O)[C@H](CCC(N)=O)NC(=O)[C@H](Cc1c[nH]c2ccccc12)NC(=O)[C@@H](NC(=O)[C@H](CCC(N)=O)NC(=O)[C@@H](NC(=O)[C@H](Cc1ccc2ccccc2c1)NC(C)=O)C(C)(C)S)[C@@H](C)O)C(C)(C)S)C(=O)N[C@@H](CC(N)=O)C(=O)N[C@@H](CC(N)=O)C(N)=O	< 10
CC(=O)N[C@H]1CCSC[C@@H](C(=O)N[C@H]2Cc3ccc(cc3)OCCNC(=O)C[C@@H](C(=O)NCC(N)=O)NC(=O)[C@H](CCC(N)=O)NC(=O)[C@](C)(CC(C)C)NC(=O)[C@H](Cc3ccc4ccccc4c3)NC2=O)NC(=O)[C@H](CCC(N)=O)NC(=O)[C@H](Cc2c[nH]c3ccccc23)NC(=O)[C@H]([C@@H](C)O)NC(=O)[C@H](CCC(N)=O)NC1=O	100 to 1000
CC(=O)N[C@H]1CCSC[C@@H](C(=O)N[C@@H](Cc2ccc(OCCN)cc2)C(=O)N[C@@H](Cc2c[nH]c3ccc(O)cc23)C(=O)NC(C)(C)C(=O)N[C@@H](CCC(N)=O)C(=O)N[C@@H](CC(N)=O)C(=O)NCC(N)=O)NC(=O)[C@H](CCC(N)=O)NC(=O)[C@H](Cc2c[nH]c3ccccc23)NC(=O)[C@H]([C@@H](C)O)NC(=O)[C@H](CCC(N)=O)NC1=O	10 to 25
CCCCCCCC[C@H](NC(=O)[C@H](Cc1c[nH]c2ccccc12)NC(=O)[C@H](Cc1ccc(O)cc1)NC(=O)[C@H](CS)NC(=O)[C@H](CCC(N)=O)NC(=O)[C@H](Cc1c[nH]c2ccccc12)NC(=O)[C@@H](NC(=O)[C@H](CCC(N)=O)NC(=O)[C@H](CS)NC(C)=O)[C@@H](C)O)C(=O)N[C@@H](CCC(=O)O)C(=O)N[C@@H](CC(N)=O)C(=O)NCC(N)=O	76
CC(=O)NCCCC[C@H](NC(=O)C(C)(C)NC(=O)[C@H](Cc1ccc2ccccc2c1)NC(=O)[C@H](Cc1ccc(OCCN)cc1)NC(=O)[C@@H](NC(=O)[C@H](CCC(N)=O)NC(=O)[C@H](Cc1c[nH]c2ccccc12)NC(=O)[C@@H](NC(=O)[C@H](CCC(N)=O)NC(=O)[C@@H](NC(=O)[C@@H](NC(C)=O)[C@@H](C)O)C(C)(C)S)[C@@H](C)O)C(C)(C)S)C(=O)N[C@@H](CC(N)=O)C(=O)N[C@@H](CC(N)=O)C(N)=O (Ac-T[Pen]QTWQ[Pen][AEF][2Nal][Aib]K(Ac)NN-NH2)	< 10
CC(=O)NCCCC[C@H](NC(=O)C(C)(C)NC(=O)[C@H](Cc1ccc2ccccc2c1)NC(=O)[C@H](Cc1ccc(OCCN)cc1)NC(=O)[C@@H](NC(=O)[C@H](CCC(N)=O)NC(=O)[C@H](Cc1c[nH]c2ccccc12)NC(=O)[C@@H](NC(=O)[C@H](CCC(N)=O)NC(=O)[C@@H](NC(=O)[C@H](Cc1ccccc1)NC(C)=O)C(C)(C)S)[C@@H](C)O)C(C)(C)S)C(=O)N[C@@H](CC(N)=O)C(=O)N[C@@H](CC(N)=O)C(N)=O	< 10
CC(=O)NCCCC[C@H](NC(=O)[C@H](CCCCN)NC(=O)[C@H](Cc1ccc2ccccc2c1)NC(=O)[C@H](Cc1ccc(OCCNC(C)=O)cc1)NC(=O)[C@@H](NC(=O)[C@H](CCC(N)=O)NC(=O)[C@H](Cc1c[nH]c2ccccc12)NC(=O)[C@@H](NC(=O)[C@H](CCC(N)=O)NC(=O)[C@@H](NC(C)=O)C(C)(C)S)[C@@H](C)O)C(C)(C)S)C(=O)N[C@@H](CC(N)=O)C(=O)N[C@@H](CC(N)=O)C(N)=O	25 to 100
CC(=O)NCCCC[C@H](NC(=O)C(C)(C)NC(=O)[C@H](Cc1ccc2ccccc2c1)NC(=O)[C@H](Cc1ccc(OCCN)cc1)NC(=O)[C@@H](NC(=O)[C@H](CCC(N)=O)NC(=O)[C@H](Cc1c[nH]c2ccccc12)NC(=O)[C@@H](NC(=O)[C@H](CCC(N)=O)NC(=O)[C@@H](NC(=O)[C@@H](CCCNC(=N)N)NC(C)=O)C(C)(C)S)[C@@H](C)O)C(C)(C)S)C(=O)N[C@@H](CC(N)=O)C(=O)N[C@@H](CC(N)=O)C(N)=O	< 10
CC(=O)NCCCC[C@H](NC(=O)C(C)(C)NC(=O)[C@H](Cc1ccc2ccccc2c1)NC(=O)[C@H](Cc1ccc(OCCN)cc1)NC(=O)[C@@H](NC(=O)[C@H](CCC(N)=O)NC(=O)[C@H](Cc1c[nH]c2ccccc12)NC(=O)[C@@H](NC(=O)[C@H](CCC(N)=O)NC(=O)[C@@H](NC(=O)[C@@H](Cc1ccccc1)NC(C)=O)C(C)(C)S)[C@@H](C)O)C(C)(C)S)C(=O)N[C@@H](CC(N)=O)C(=O)N[C@@H](CC(N)=O)C(N)=O	< 10
COc1ccc(C[C@H](NC(=O)[C@@H](NC(=O)[C@H](CCC(N)=O)NC(=O)[C@H](Cc2c[nH]c3ccccc23)NC(=O)[C@@H](NC(=O)[C@H](CC(N)=O)NC(=O)[C@@H](NC(C)=O)C(C)(C)S)[C@@H](C)O)C(C)(C)S)C(=O)N[C@@H](Cc2ccc3ccccc3c2)C(=O)NC(C)(C)C(=O)N[C@@H](CCCCNC(C)=O)C(=O)N[C@@H](CC(N)=O)C(=O)N[C@@H](C)C(N)=O)cc1	< 10
CC(=O)NCCCC[C@H](NC(=O)[C@H](CCC(C)C)NC(=O)[C@H](Cc1ccc2ccccc2c1)NC(=O)[C@H](Cc1ccc(OCCN)cc1)NC(=O)[C@@H](NC(=O)[C@H](CCC(N)=O)NC(=O)[C@H](Cc1c[nH]c2ccccc12)NC(=O)[C@@H](NC(=O)[C@H](CCC(N)=O)NC(=O)[C@@H](NC(C)=O)C(C)(C)S)[C@@H](C)O)C(C)(C)S)C(=O)N[C@@H](CC(N)=O)C(=O)NCCC(N)=O	< 10
COc1ccc(C[C@H](NC(=O)[C@H](Cc2ccc(C(N)=O)cc2)NC(=O)[C@@H](NC(=O)[C@H](CCC(N)=O)NC(=O)[C@H](Cc2c[nH]c3ccccc23)NC(=O)[C@@H](NC(=O)[C@H](CCC(N)=O)NC(=O)[C@@H](NC(C)=O)C(C)(C)S)[C@@H](C)O)C(C)(C)S)C(=O)N[C@](C)(C(=O)N[C@@H](CCCCNC(C)=O)C(=O)N[C@@H](CC(N)=O)C(=O)N[C@@H](CC(N)=O)C(N)=O)C(C)C)cc1OC (Ac-[Pen]QTWQ[Pen][Phe(4-CONH2)][Phe(3,4-(OMe)2)][αMeV]K(Ac)NN-NH2)	10 to 25
CC(=O)N[C@@H](CS)C(=O)N[C@@H](CN)C(=O)N[C@H](C(=O)N[C@@H](Cc1c[nH]c2ccccc12)C(=O)N[C@@H](CCC(N)=O)C(=O)N[C@@H](CS)C(=O)N[C@@H](Cc1ccc(O)cc1)C(=O)N[C@@H](Cc1c[nH]c2ccccc12)C(=O)N[C@@H](CCCNC(=N)N)C(=O)N[C@H](C(=O)N[C@@H](Cc1ccccc1)C(=O)NCC(=O)NCCOCC(=O)N[C@H](CCCCN)C(N)=O)C(C)C)[C@@H](C)O	100
COc1ccc(C[C@H](NC(=O)[C@@H](NC(=O)[C@H](CCC(N)=O)NC(=O)[C@H](Cc2c[nH]c3ccccc23)NC(=O)[C@@H](NC(=O)[C@H](CCC(N)=O)NC(=O)[C@@H](NC(C)=O)C(C)(C)S)[C@@H](C)O)C(C)(C)S)C(=O)N[C@@H](Cc2ccc3ccccc3c2)C(=O)N[C@@H](CCC(C)C)C(=O)N[C@@H](CCCCNC(C)=O)C(=O)N[C@@H](CC(N)=O)C(=O)NCCC(N)=O)cc1	< 10
CC(=O)NCCCC[C@H](NC(=O)C(C)(C)NC(=O)[C@H](Cc1ccc2ccccc2c1)NC(=O)[C@H](Cc1ccc(OCCN)cc1)NC(=O)[C@@H](NC(=O)[C@H](CCC(N)=O)NC(=O)[C@H](Cc1c[nH]c2ccccc12)NC(=O)[C@@H](NC(=O)[C@H](CCC(N)=O)NC(=O)[C@@H](NC(=O)[C@H](CC(C)C)NC(C)=O)C(C)(C)S)[C@@H](C)O)C(C)(C)S)C(=O)N[C@@H](CC(N)=O)C(=O)N[C@@H](CC(N)=O)C(N)=O (Ac-L[Pen]QTWQ[Pen][AEF][2Nal][Aib]K(Ac)NN-NH2)	< 10
